Laboratory results published in US11332459B2 (TEIJIN PHARMA LIMITED, priority 2017, dated 2022).

target: T1, human TRPC6 (Homo sapiens, UniProt Q9Y210); experiment: TRPC6 calcium flux assay (FLIPR, OAG-stimulated calcium influx); format: cell-based; conditions: HEK293 cells stably transfected with human TRPC6, read-out: hTRPC6 Potency
T1 construct: expressed in transfected cells
T1 sequence (Q9Y210 1-931): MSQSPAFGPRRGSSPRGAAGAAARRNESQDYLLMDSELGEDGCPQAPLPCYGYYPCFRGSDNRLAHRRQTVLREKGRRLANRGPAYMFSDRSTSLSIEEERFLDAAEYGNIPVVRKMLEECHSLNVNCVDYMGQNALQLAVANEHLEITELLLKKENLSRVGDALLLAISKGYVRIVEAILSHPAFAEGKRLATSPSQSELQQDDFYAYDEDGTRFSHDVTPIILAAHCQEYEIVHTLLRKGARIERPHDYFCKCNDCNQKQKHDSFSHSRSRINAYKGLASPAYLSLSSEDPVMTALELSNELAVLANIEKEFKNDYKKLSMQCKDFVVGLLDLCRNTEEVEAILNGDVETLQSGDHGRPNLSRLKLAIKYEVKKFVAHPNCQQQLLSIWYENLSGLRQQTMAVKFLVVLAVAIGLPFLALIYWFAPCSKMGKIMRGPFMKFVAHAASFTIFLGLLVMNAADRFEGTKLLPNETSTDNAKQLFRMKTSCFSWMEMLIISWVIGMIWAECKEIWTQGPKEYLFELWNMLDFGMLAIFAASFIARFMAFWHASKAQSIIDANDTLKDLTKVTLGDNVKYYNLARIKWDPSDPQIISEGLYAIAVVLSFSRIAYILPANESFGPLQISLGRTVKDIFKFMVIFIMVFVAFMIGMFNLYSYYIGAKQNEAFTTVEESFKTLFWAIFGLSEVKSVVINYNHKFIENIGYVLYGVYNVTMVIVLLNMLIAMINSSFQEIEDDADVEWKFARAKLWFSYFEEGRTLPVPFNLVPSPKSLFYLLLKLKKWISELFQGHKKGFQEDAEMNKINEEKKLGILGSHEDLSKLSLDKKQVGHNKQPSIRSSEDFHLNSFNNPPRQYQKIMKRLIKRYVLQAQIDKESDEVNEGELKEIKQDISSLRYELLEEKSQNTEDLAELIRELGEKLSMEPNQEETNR
Summary of the method: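 HEK293 cells stably expressing human TRPC6, loaded with calcium dye 90–120 min at RT, then given compound for 25 min before OAG (50 uM final, 0.5% DMSO) in HEPES buffer pH 7.2 with 2 mM CaCl2. Background-subtracted FLIPR peak over 180 s normalized to OAG vs buffer; IC50 from dose plot.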

| SMILES | IC50 [nM] |
| --- | --- |
| CN(CC(F)(F)F)C(=O)Cn1c(N2CC[C@@H](F)[C@H](N)C2)nc2ccc(C(F)(F)F)cc21 [Example 554, 2-(2-((3R,4R)-3-amino-4-fluoropiperidin-1-yl)-6-(trifluoromethyl)-1H-benzo[d]imidazol-1-yl)-N-methyl-N-(2,2,2-trifluoroethyl)acetamide] | 10.9 |
| N[C@@H]1CN(c2nc3ncc(F)cc3n2Cc2ncc(Cl)cn2)CC[C@H]1F [Example 555, (3R,4R)-1-(1-((5-chloropyrimidin-2-yl)methyl)-6-fluoro-1H-imidazo[4,5-b]pyridin-2-yl)-4-fluoropiperidin-3-amine] | 11.6 |
| CS(=O)(=O)c1ccc(Cn2c(N3CC[C@@H](F)[C@H](N)C3)nc3c(F)cc(F)cc32)nc1 [Example 556, (3R,4R)-1-(4,6-difluoro-1-((5-(methylsulfonyl)pyridin-2-yl)methyl)-1H-benzo[d]imidazol-2-yl)-4-fluoropiperidin-3-amine] | 11.9 |
| N[C@@H]1CN(c2nc3c(F)cc(F)cc3n2Cc2nnc(C(F)F)s2)CC[C@H]1F [Example 557, (3R,4R)-1-(1-((5-(difluoromethyl)-1,3,4-thiadiazol-2-yl)methyl)-4,6-difluoro-1H-benzo[d]imidazol-2-yl)-4-fluoropiperidin-3-amine] | 12.8 |
| CN(CC(F)(F)F)C(=O)Cn1c(N2CC[C@@H](F)[C@H](N)C2)nc2c(F)cc(F)cc21 [Example 558, 2-(2-((3R,4R)-3-amino-4-fluoropiperidin-1-yl)-4,6-difluoro-1H-benzo[d]imidazol-1-yl)-N-methyl-N-(2,2,2-trifluoroethyl)acetamide] | 16.1 |
| CN(CC(F)(F)F)C(=O)Cn1c(N2CC[C@@H](F)[C@H](N)C2)nc2ccc(Cl)cc21 [Example 559, 2-(2-((3R,4R)-3-amino-4-fluoropiperidin-1-yl)-6-chloro-1H-benzo[d]imidazol-1-yl)-N-methyl-N-(2,2,2-trifluoroethyl)acetamide] | 16.6 |
| N[C@@H]1CN(c2nc3cc(F)c(F)cc3n2Cc2nnc(C(F)F)s2)CC[C@H]1F [Example 560, (3R,4R)-1-(1-((5-(difluoromethyl)-1,3,4-thiadiazol-2-yl)methyl)-5,6-difluoro-1H-benzo[d]imidazol-2-yl)-4-fluoropiperidin-3-amine] | 18.7 |
| Cc1nnc(Cn2c(N3CC[C@@H](F)[C@H](N)C3)nc3ccc(F)cc32)s1 [Example 561, (3R,4R)-4-fluoro-1-(6-fluoro-1-((5-methyl-1,3,4-thiadiazol-2-yl)methyl)-1H-benzo[d]imidazol-2-yl)piperidin-3-amine] | 19.8 |
| CS(=O)(=O)c1ccc(Cn2c(N3CC[C@@H](F)[C@H](N)C3)nc3cc(F)c(F)cc32)nc1 [Example 562, (3R,4R)-1-(5,6-difluoro-1-((5-(methylsulfonyl)pyridin-2-yl)methyl)-1H-benzo[d]imidazol-2-yl)-4-fluoropiperidin-3-amine] | 20.8 |
| CN(C)C(=O)Cn1c(N2CC[C@@H](F)[C@H](N)C2)nc2ccc(C(F)(F)F)cc21 [Example 563, 2-(2-((3R,4R)-3-amino-4-fluoropiperidin-1-yl)-6-(trifluoromethyl)-1H-benzo[d]imidazol-1-yl)-N,N-dimethylacetamide] | 21.6 |
| Cc1cc(Cn2c(N3CC[C@@H](F)[C@H](N)C3)nc3cc(F)c(F)cc32)no1 [Example 564, (3R,4R)-1-(5,6-difluoro-1-((5-methylisoxazol-3-yl)methyl)-1H-benzo[d]imidazol-2-yl)-4-fluoropiperidin-3-amine] | 29.2 |
| CN(C)C(=O)Cn1c(N2CC[C@@H](F)[C@H](N)C2)nc2c(F)cc(F)cc21 [Example 565, 2-(2-((3R,4R)-3-amino-4-fluoropiperidin-1-yl)-4,6-difluoro-1H-benzo[d]imidazol-1-yl)-N,N-dimethylacetamide] | 32.2 |
| CN(C)C(=O)Cn1c(N2CC[C@@H](F)[C@H](N)C2)nc2ccc(F)cc21 [Example 566, 2-(2-((3R,4R)-3-amino-4-fluoropiperidin-1-yl)-6-fluoro-1H-benzo[d]imidazol-1-yl)-N,N-dimethylacetamide] | 35.2 |
| Cc1cnc(Cn2c(N3CC[C@@H](F)[C@H](N)C3)nc3cc(F)c(F)cc32)o1 [Example 567, (3R,4R)-1-(5,6-difluoro-1-((5-methyloxazol-2-yl)methyl)-1H-benzo[d]imidazol-2-yl)-4-fluoropiperidin-3-amine] | 39.8 |

More lines, now with the values ahead:

| IC50 [nM] | SMILES |
| --- | --- |
| 48.1 | Cc1csc(Cn2c(N3CC[C@@H](F)[C@H](N)C3)nc3cc(F)c(F)cc32)n1 [Example 568, (3R,4R)-1-(5,6-difluoro-1-((4-methylthiazol-2-yl)methyl)-1H-benzo[d]imidazol-2-yl)-4-fluoropiperidin-3-amine] |
| 78.4 | N[C@@H]1CN(c2nc3ccc(F)cc3n2Cc2nc(C(F)(F)F)no2)CC[C@H]1F [Example 569, (3R,4R)-4-fluoro-1-(6-fluoro-1-((3-(trifluoromethyl)-1,2,4-oxadiazol-5-yl)methyl)-1H-benzo[d]imidazol-2-yl)piperidin-3-amine] |
| 85.4 | CN(CC(F)(F)F)C(=O)Cn1c(N2CC[C@@H](F)[C@H](N)C2)nc2cc(Cl)ccc21 [Example 570, 2-(2-((3R,4R)-3-amino-4-fluoropiperidin-1-yl)-5-chloro-1H-benzo[d]imidazol-1-yl)-N-methyl-N-(2,2,2-trifluoroethyl)acetamide] |
| 93.2 | Cc1nnc(Cn2c(N3CC[C@@H](F)[C@H](N)C3)nc3cc(F)c(F)cc32)o1 [Example 571, (3R,4R)-1-(5,6-difluoro-1-((5-methyl-1,3,4-oxadiazol-2-yl)methyl)-1H-benzo[d]imidazol-2-yl)-4-fluoropiperidin-3-amine] |
| 106 | Cc1nc(Cn2c(N3CC[C@@H](F)[C@H](N)C3)nc3cc(F)c(F)cc32)no1 [Example 572, (3R,4R)-1-(5,6-difluoro-1-((5-methyl-1,2,4-oxadiazol-3-yl)methyl)-1H-benzo[d]imidazol-2-yl)-4-fluoropiperidin-3-amine] |
| 117 | N[C@@H]1CN(c2nc3ccc(F)cc3n2Cc2nnc(C(F)F)s2)CC[C@H]1F [Example 573, (3R,4R)-1-(1-((5-(difluoromethyl)-1,3,4-thiadiazol-2-yl)methyl)-6-fluoro-1H-benzo[d]imidazol-2-yl)-4-fluoropiperidin-3-amine] |
| 153 | Cc1nnc(Cn2c(N3CC[C@@H](F)[C@H](N)C3)nc3ncc(F)cc32)s1 [Example 574, (3R,4R)-4-fluoro-1-(6-fluoro-1-((5-methyl-1,3,4-thiadiazol-2-yl)methyl)-1H-imidazo[4,5-b]pyridin-2-yl)piperidin-3-amine] |
| 155 | Cc1nc(Cn2c(N3CC[C@@H](F)[C@H](N)C3)nc3cc(F)c(F)cc32)oc1C [Example 575, (3R,4R)-1-(1-((4,5-dimethyloxazol-2-yl)methyl)-5,6-difluoro-1H-benzo[d]imidazol-2-yl)-4-fluoropiperidin-3-amine] |
| 169 | CN(C)C(=O)Cn1c(N2CC[C@@H](F)[C@H](N)C2)nc2cc(F)ccc21 [Example 576, 2-(2-((3R,4R)-3-amino-4-fluoropiperidin-1-yl)-5-fluoro-1H-benzo[d]imidazol-1-yl)-N,N-dimethylacetamide] |
| 184 | CCc1nc(Cn2c(N3CC[C@@H](F)[C@H](N)C3)nc3cc(F)c(F)cc32)no1 [Example 577, (3R,4R)-1-(1-((5-ethyl-1,2,4-oxadiazol-3-yl)methyl)-5,6-difluoro-1H-benzo[d]imidazol-2-yl)-4-fluoropiperidin-3-amine] |
| 251 | N[C@@H]1CN(c2nc3cc(F)c(F)cc3n2Cc2noc(C3CC3)n2)CC[C@H]1F [Example 578, (3R,4R)-1-(1-((5-cyclopropyl-1,2,4-oxadiazol-3-yl)methyl)-5,6-difluoro-1H-benzo[d]imidazol-2-yl)-4-fluoropiperidin-3-amine] |
| 312 | Cc1cc(Cn2c(N3CC[C@@H](F)[C@H](N)C3)nc3cc(F)c(F)cc32)on1 [Example 579, (3R,4R)-1-(5,6-difluoro-1-((3-methylisoxazol-5-yl)methyl)-1H-benzo[d]imidazol-2-yl)-4-fluoropiperidin-3-amine] |
| 365 | CN(CC(F)(F)F)C(=O)Cn1c(N2CC[C@@H](F)[C@H](N)C2)nc2cc(C(F)(F)F)ccc21 [Example 580, 2-(2-((3R,4R)-3-amino-4-fluoropiperidin-1-yl)-5-(trifluoromethyl)-1H-benzo[d]imidazol-1-yl)-N-methyl-N-(2,2,2-trifluoroethyl)acetamide] |
